Our source for the EC50 values is patent US20240199608A1 (Eli Lilly and Company, priority 2022, published 2024).

What is called EC50 is the concentration needed to bring the measured effect to its halfway point.

In the assay the target is T1, Human AhR (Homo sapiens, UniProt P35869).
T1 construct: expressed in transfected cells
T1 sequence (P35869 11-848): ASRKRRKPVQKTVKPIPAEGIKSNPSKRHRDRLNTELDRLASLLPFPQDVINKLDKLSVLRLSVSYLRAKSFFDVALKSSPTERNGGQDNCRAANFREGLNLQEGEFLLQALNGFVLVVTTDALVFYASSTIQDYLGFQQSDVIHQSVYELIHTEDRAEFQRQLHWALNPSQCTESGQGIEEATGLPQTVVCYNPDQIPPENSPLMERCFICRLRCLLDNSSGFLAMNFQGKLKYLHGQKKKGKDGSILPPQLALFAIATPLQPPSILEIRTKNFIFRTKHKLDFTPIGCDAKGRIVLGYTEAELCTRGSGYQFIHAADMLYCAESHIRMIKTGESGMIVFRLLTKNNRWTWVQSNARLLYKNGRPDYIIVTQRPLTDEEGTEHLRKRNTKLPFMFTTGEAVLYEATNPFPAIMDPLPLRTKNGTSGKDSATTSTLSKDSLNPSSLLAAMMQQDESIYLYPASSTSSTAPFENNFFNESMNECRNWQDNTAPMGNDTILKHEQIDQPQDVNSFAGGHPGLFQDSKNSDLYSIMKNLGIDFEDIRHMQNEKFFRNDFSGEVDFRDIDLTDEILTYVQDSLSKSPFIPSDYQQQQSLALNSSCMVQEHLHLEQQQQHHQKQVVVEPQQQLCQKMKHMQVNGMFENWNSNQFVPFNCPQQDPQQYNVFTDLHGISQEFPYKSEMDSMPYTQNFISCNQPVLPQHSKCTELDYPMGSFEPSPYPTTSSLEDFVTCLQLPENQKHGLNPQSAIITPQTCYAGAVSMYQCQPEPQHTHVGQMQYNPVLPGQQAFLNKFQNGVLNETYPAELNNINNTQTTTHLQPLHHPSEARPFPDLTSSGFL
As to the kind of experiment: hAHR Nuclear Translocation Assay. In kind it is cell-based. The following applies: AhR-EGFP nuclear translocation in Jump-In T-REx HEK293 cells, 45 minutes incubation, read-out: Rel EC50. The text has this: The purpose of this assay is to measure the ability of compounds to bind to, activate, and induce the translocation of AhR into the nucleus of a cell for transcription. Stable cell lines were established using Jump-InTM T-RExTM HEK293 Retargeting Kit (Life Technologies). Human AhR cDNA was cloned into the pJTI R4 CMV-TO EGFP vector. The EGFP was cloned to the C-terminal of AHR to form AhR-EGFP chimera. The pJTI R4 CMV-TO AhR-EGFP vector was transfected using FuGENE® HD into Jump-InTM T-RExTM HEK293 cells. Transfected cells were selected using 2.5 mg/ml G418 for 10 to 14 days, then expanded, harvested, and suspended in freeze media (FBS with 8% DMSO) at 2×10^7 cells/ml, and aliquots were stored in liquid nitrogen. One day before the assay date, cells were thawed and resuspended in DMEM with 5% FBS in the presence of 1 μg/ml Doxycycline and plated into ploy-L-Lysine coated […]-384 ULTRA Microplates (Perkin Elmer) at 12,000 to 15,000 cells per well and incubated at 37° C. and 5% CO2 overnight. On the assay date, compound was serially diluted (1:2) into 384-well nunc plates with DMSO using acoustic dispensing (ECHO®). The dose response was a 20-point curve. […] The culture media was damped and 25 μl of DMEM plus 0.1% BSA was added, then 25 μL of compound in DMEM plus 0.1% BSA was added into cell plates. Cells were incubated compounds at 37° C. and 5% CO2 for 45 minutes. The final DMSO concentration was 0.2%. The media was damped after 45 minutes incubation. The cells were fixed with 40 μl of cold MeOH (-20° C.) for 20 minutes. The MeOH was damped and 50 μL of DPBS containing 1 μg/mL Hochst was added into the cell plates. The intensity of EGFP was quantitated by using Opera PHENIX® or OPERETTA® high content image system (Perkin Elmer) with 20× Water Objective and five field per well. The ratio of EGFP fluorescent intensity in nuclear over cytosol was analyzed using a 4-parameter nonlinear logistic equation to determine the potency of AhR agonists.

Like-named read-outs stand apart in the source and are kept apart here.

Regarding `CC1CCc2c1cc(C(=O)Nc1ccno1)c1nncn21` (single isomer, unassigned) [Example 45, N-(Isoxazol-5-yl)-6-methyl-7,8-dihydro-6H-cyclopenta[e][1,2,4] triazolo[4,3-a]pyridine-4-carboxamide], the EC50 (class symbols) was in the range of 10 to 50 nM.

On to `CC1CCc2c1cc(C(=O)Nc1ccccn1)c1nncn21` (single isomer, unassigned) [Example 4], for which, for the setting “class symbols”, the EC50 was greater than 50 nM.

Take `COc1ccccc1NC(=O)c1cc2c(n3cnnc13)CCC2C` (single isomer, unassigned) [Example 20, N-(2-methoxyphenyl)-6-methyl-7,8-dihydro-6H-cyclopenta[e][1,2,4] triazolo[4,3-a]pyridine-4-carboxamide]: the EC50 (class symbols) was greater than 50 nM.

Consider `CCC1CCc2c1cc(C(=O)Nc1ncc(F)cn1)c1nncn21` (single isomer, unassigned) [Example 57, 6-Ethyl-N-(5-fluoropyrimidin-2-yl)-7,8-dihydro-6H-cyclopenta[e][1,2,4] triazolo[4,3-a]pyridine-4-carboxamide], for which the EC50 (class symbols) fell in the range of 1 to 10 nM.

As to `CC1CCc2c1cc(C(=O)Nc1ncc(Cl)cn1)c1nncn21` (single isomer, unassigned) [Example 46, N-(5-Chloropyrimidin-2-yl)-6-methyl-7,8-dihydro-6H-cyclopenta[e][1,2,4] triazolo[4,3-a]pyridine-4-carboxamide], under “class symbols”, the EC50 was in the range of 1 to 10 nM.

As for `O=C(Nc1ncc(F)cn1)c1cc2ccccc2n2cnnc12` [Example 1, N-(5-Fluoropyrimidin-2-yl)-[1,2,4]triazolo[4,3-a]quinoline-4-carboxamide], the EC50 (numeric values) was determined as 3.1 nM.

For `C[C@H]1CCc2c1cc(C(=O)Nc1ncccn1)c1nccn21` (single isomer, unassigned) [Example 12, 6-Methyl-N-(pyrimidin-2-yl)-7,8-dihydro-6H-cyclopenta[e]imidazo[1,2-a]pyridine-4-carboxamide], the EC50 (numeric values) came out at 9.8 nM.

Consider `CCCC1CCc2c1cc(C(=O)Nc1ncc(F)cn1)c1nncn21` (single isomer, unassigned) [Example 68, N-(5-Fluoropyrimidin-2-yl)-6-propyl-7,8-dihydro-6H-cyclopenta[e][1,2,4] triazolo[4,3-a]pyridine-4-carboxamide], for which the EC50 (class symbols) lay within 10 to 50 nM.

In the case of `CC(C)c1nnc2c(C(=O)Nc3ncc(F)cn3)cc3c(n12)CCC3C` (single isomer, unassigned) [Example 55, N-(5-Fluoropyrimidin-2-yl)-1-isopropyl-6-methyl-7,8-dihydro-6H-cyclopenta[e][1,2,4] triazolo[4,3-a]pyridine-4-carboxamide], the EC50 (class symbols) is greater than 50 nM.

Regarding `O=C(Nc1ncc(F)cn1)c1cc2c(n3cnnc13)CCC2C1CCC1` (single isomer, unassigned) [Example 64, 6-Cyclobutyl-N-(5-fluoropyrimidin-2-yl)-7,8-dihydro-6H-cyclopenta[e][1,2,4] triazolo[4,3-a]pyridine-4-carboxamide], the EC50 (class symbols) was 1 to 10 nM.

Take `CC1CCc2c1cc(C(=O)Nc1ccccn1)c1nccn21` (single isomer, unassigned) [Example 9, 6-Methyl-N-(pyridin-2-yl)-7,8-dihydro-6H-cyclopenta[e]imidazo[1,2-a]pyridine-4-carboxamide]: the EC50 (numeric values) was determined as 3.37 nM.

Consider `COc1cnc(NC(=O)c2cc3c(n4cnnc24)CCC3C)nc1` (single isomer, unassigned) [Example 49, N-(5-Methoxypyrimidin-2-yl)-6-methyl-7,8-dihydro-6H-cyclopenta[e][1,2,4] triazolo[4,3-a]pyridine-4-carboxamide], for which the EC50 (class symbols) was in the range of 10 to 50 nM.
